Consider five compounds from patent US20210228500A1, “CELLULAR RETINOID BINDING PROTEIN ANTAGONISTS AND USES THEREOF” (CASE WESTERN RESRVE UNIVERSITY, priority 2018, published 2021).

The target in assay [1] is T1, CRBP1 (Homo sapiens, UniProt P09455).
T1 construct: made in house
T1 sequence (P09455 1-135): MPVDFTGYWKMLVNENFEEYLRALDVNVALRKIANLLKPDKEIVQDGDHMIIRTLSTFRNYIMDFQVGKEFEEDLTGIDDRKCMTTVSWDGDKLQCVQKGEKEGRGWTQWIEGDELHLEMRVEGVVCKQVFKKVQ
The assay can be described thus: Fluorescence binding assay: atROL displacement from holo-CRBP1 (FRET). As to conditions: for binding to / interaction with CRBP1: 0-10 μM range. The protocol:
Human apo-CRBP1 was expressed and purified as described by Silvaroli et al. (J Biol Chem. 2016, 15; 291(16)) without any further modification to the established protocol.
To prepare holo-CRBP1, 3 mg of purified apoprotein was incubated for 15 min on ice with 2 molar excess of atROL (Toronto Research Chemicals) in 10 mM Tris-HCl, pH 8.0, 5% glycerol (v/v). The retinoid was delivered in acetonitrile (<1%, v/v). To remove excess of atROL, the protein solution was diluted 10× with 10 mM Tris-HCl, pH 8.0, centrifuged (36 000 g, 20 min, 4° C.) and loaded onto a 5 mL HiTrap Q HP column. Holo-CRBP1 was eluted from the column in conditions described in CRBP1 purification method. The efficiency of formation of holo-CRBP1 was examined by recording UV/vis spectrum of the repurified protein.
The apparent affinity of nonretinoid ligands was evaluated by monitoring changes in the fluorescence of holo-CRBP1. In the atROL bound form, the protein excited at 285 nm emitted fluorescence at 350 and 480 nm due to FRET between the protein scaffold and the retinoid moiety (FIG. 2A). Replacement of atROL in the binding site by tested ligands leads to disruption of FRET and consequently an increase in the fluorescence intensity at 350 nm with concomitant diminishing signal at 480 nm. All fluorescence measurements were performed using a PerkinElmer Life Sciences LS55 spectrofluorometer. The titrations were performed at 25° C. in 67 mM phosphate-buffered saline buffer, pH 7.4, containing 5% glycerol (v/v) by adding an increasing amount of an examined compound delivered in acetonitrile. […] All fluorescence spectra were corrected for the inner filter effect. The Ki values were calculated by fitting intensities of the protein fluorescence at the maximum emission (350 nm) or the intensity of retinoid fluorescence at 480 nm to the saturation single ligand-binding model. The data fitting and calculations of the Ki values were performed using SigmaPlot 11 software package (Systat Software).

In assay [2] the target is T1, CRBP1. The settings on record: read-out: affinity for atROL; cited from earlier work.
The target in another assay is T2, CRBP4 (Homo sapiens, UniProt Q96R05).
T2 construct: thrombin cut site (residual residues after digestion) (C); 6x histidine tag (C, cleaved yes); made in house; host or cells: E. coli BL21 (DE3) (as for CRBP2)
T2 sequence (Q96R05 1-134): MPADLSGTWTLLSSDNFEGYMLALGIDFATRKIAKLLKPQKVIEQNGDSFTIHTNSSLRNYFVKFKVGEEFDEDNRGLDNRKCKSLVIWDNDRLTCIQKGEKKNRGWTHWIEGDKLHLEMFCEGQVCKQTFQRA
The settings on record: read-out: affinity for atROL; cited from earlier work.

[3] abbreviates: fluorescence atROL-replacing assay.

The structures appear in SMILES notation. A value given as a limit tells only on which side of the number the result lay.

Take `C=C(C)[C@@H]1CCC(C)=C[C@H]1c1c(OC)cc(C)cc1OC` [0-1918, 1,3-dimethoxy-5-methyl-2-[(1R,6R)-3-methyl-6-prop-1-en-2-ylcyclohex-2-en-1-yl]benzene]: on CRBP1 [1] (setting [3]), the “binding to / interaction with CRBP1” value is recorded as “abolished the meaningful binding”.
Take `C=C(C)[C@@H]1CCC(C)=CC1c1c(O)cc(C)cc1O` (stereo partly drawn) [CBDO, 5-methyl-2-[(6R)-3-methyl-6-prop-1-en-2-ylcyclohex-2-en-1-yl]benzene-1,3-diol]: the “further increase of the Ki value” at CRBP1 [1] (fluorescence atROL-replacing assay, relative to abn-CBDO) was found to be 6.3 fold.
Regarding `C=C(C)[C@@H]1CCC(C)=C[C@H]1c1c(C)cc(O)cc1O` [abn-CBDO, 5-methyl-4-[(1R,6R)-3-methyl-6-prop-1-en-2-ylcyclohex-2-en-1-yl]benzene-1,3-diol], at CRBP1 [1] (fluorescence atROL-replacing assay, relative to abn-CBD), the “apparent affinity lowered compared with abn-CBD” value turned out to be 4.3 times.
With `CC1=C(/C=C/C(C)=C/C=C/C(C)=C/CO)C(C)(C)CCC1` [atROL, all-trans-retinol], the Ki at CRBP1 [1] (reverse experiment: CRBP1 loaded with abn-CBD titrated with atROL, read-out: Ki value for replacing abn-CBD by vitamin A) was around 34 nM. Further, the values for the Kd at CRBP1 [2] and on CRBP4 were below 1 nM and 200 nM, respectively.
Regarding `C=C(C)[C@H]1CC=C(C)CC1` [limonene, reference compound], the “binding to / interaction with CRBP1” value on CRBP1 [1] (setting [3]) is given as “did not observe limonene interacting”.
